Activity calls are given as the source filed them. The rule behind the calls is not given here.

The record followed here is ChEMBL document CHEMBL5576084, “Development of chromone-thiazolidine-2,4-dione Knoevenagel conjugates as apoptosis inducing agents” (Bioorg Med Chem Lett, 2024).

Data set [1] has as its system A549. Kind of data set: Induction of DNA damage in human A549 cells assessed as decrease in green fluorescence at 3 to 9 uM by acridine orange/EtBr staining based analysis. As to conditions: dose 3-9 µM. It is filed as functional, cell-based.
Data set [2] has as its system A549. The data set is described as follows: Cytotoxicity against human A549 cells assessed as inhibition of cell growth incubated for 48 hrs by MTT assay. To be noted: A549, 48 h. The class given is functional, cell-based. (Tetrazolium assays rely on reduction of a dye to a coloured formazan, in cell work by metabolically active cells.)
The subject of data set [3] is A549. Kind of data set: Induction of apoptosis in human A549 cells assessed as reduction in Bcl-2 expression at 3 uM by PI staining based flow cytometric analysis relative to control. The class given is functional. More on the design: scale not given: the % may be the effect or the level left. For orientation: In flow cytometry, cells or beads pass a laser one at a time.

The subject of data set [4] is A549. The data set is described as follows: Induction of apoptosis in human A549 cells assessed as increase in yellowish green intensity at 3 to 9 uM by acridine orange/EtBr staining based analysis. To be noted: dose 3-9 µM. It is filed as functional, cell-based.
The test system of data set [5] is A549. Kind of data set: Cell cycle arrest in human A549 cells assessed as accumulation of cells at G2/M phase at 3 uM by PI staining based flow cytometric analysis (reference value: 11.5 %). The class given is functional.
The next data set deals with HCT-116. Kind of data set: Cytotoxicity against human HCT-116 cells assessed as inhibition of cell growth incubated for 48 hrs by MTT assay. As to conditions: HCT-116, 48 h. It is filed as functional, cell-based.
The subject of data set [6] is A549. Kind of data set: Induction of apoptosis in human A549 cells assessed as late apoptotic cells at 3 uM by Annexin V-FITC/PI staining based flow cytometric analysis (reference value: 0.19 %). The class given is functional.
For data set [7], the system named is A549. The data set is described as follows: Induction of DNA damage in human A549 cells assessed as DNA condensation by measuring increase in fluorescence intensity at 3 to 9 uM by DAPI staining based fluorescence microscopic analysis. It is filed as functional, cell-based. To be noted: dose 3-9 µM.
Data set [8] deals with A549. The data set is described as follows: Induction of ROS generation in human A549 cells assessed as fold change at 9 uM by DCFDA-H2 fluorescent dye based flow cytometric analysis relative to control. The class given is functional.
The subject of data set [9] is A549. The data set is described as follows: Induction of apoptosis in human A549 cells assessed as necrotic cells at 9 uM by Annexin V-FITC/PI staining based flow cytometric analysis (reference value: 0.46 %). The class given is functional.
The test system of data set [10] is A549. The data set is described as follows: Induction of apoptosis in human A549 cells assessed as appearance of shrunken cells with fragmented nucleus at 3 to 9 uM by DAPI staining based fluorescence microscopic analysis. The class given is functional, cell-based. To be noted: dose 3-9 µM.
Data set [11] relates to A549. The data set is described as follows: Induction of ROS generation in human A549 cells assessed as fold change at 6 uM by DCFDA-H2 fluorescent dye based flow cytometric analysis relative to control. The class given is functional.
The subject of data set [12] is A549. Kind of data set: Induction of apoptosis in human A549 cells assessed as reduction in Bcl-2 expression at 6 uM by PI staining based flow cytometric analysis relative to control. More on the design: scale not given: the % may be the effect or the level left. The class given is functional.
Another data set concerns MCF7. Kind of data set: Cytotoxicity against human MCF7 cells assessed as inhibition of cell growth incubated for 48 hrs by MTT assay. The class given is functional, cell-based. To be noted: MCF7, 48 h.
In data set [13] the test system is A549. Kind of data set: Cell cycle arrest in human A549 cells assessed as accumulation of cells at G2/M phase at 9 uM by PI staining based flow cytometric analysis (reference value: 11.5 %). It is filed as functional.
Data set [14] deals with A549. The data set is described as follows: Induction of apoptosis in human A549 cells assessed as late apoptotic cells at 6 uM by Annexin V-FITC/PI staining based flow cytometric analysis (reference value: 0.19 %). It is filed as functional.
Data set [15] has as its system A549. Kind of data set: Induction of apoptosis in human A549 cells assessed as increase in late apoptotic cells by measuring orange red signals at 3 to 9 uM by acridine orange/EtBr staining based analysis. It is filed as functional, cell-based. To be noted: dose 3-9 µM.
In data set [16] the test system is A549. The data set is described as follows: Induction of apoptosis in human A549 cells assessed as reduction in Bcl-2 expression at 9 uM by PI staining based flow cytometric analysis relative to control. It is filed as functional. More on the design: scale not given: the % may be the effect or the level left.
Data set [17] has as its system A549. The data set is described as follows: Induction of ROS generation in human A549 cells assessed as fold change at 3 uM by DCFDA-H2 fluorescent dye based flow cytometric analysis relative to control. The class given is functional.
Data set [18] concerns A549. Kind of data set: Induction of apoptosis in human A549 cells assessed as necrotic cells at 3 uM by Annexin V-FITC/PI staining based flow cytometric analysis (reference value: 0.46 %). The class given is functional.
The subject of data set [19] is A549. Kind of data set: Induction of apoptosis in human A549 cells assessed as early apoptotic cells at 3 uM by Annexin V-FITC/PI staining based flow cytometric analysis (reference value: 0.32 %). The class given is functional.
In data set [20] the test system is A549. Kind of data set: Induction of apoptosis in human A549 cells assessed as late apoptotic cells at 9 uM by Annexin V-FITC/PI staining based flow cytometric analysis (reference value: 0.19 %). The class given is functional.
Data set [21] has as its system A549. Kind of data set: Induction of apoptosis in human A549 cells assessed as reduction in green intensity at 3 to 9 uM by acridine orange/EtBr staining based analysis. The class given is functional, cell-based. As to conditions: dose 3-9 µM.
The test system of data set [22] is A549. The data set is described as follows: Induction of apoptosis in human A549 cells assessed as necrotic cells at 6 uM by Annexin V-FITC/PI staining based flow cytometric analysis (reference value: 0.46 %). The class given is functional.
Data set [23] has as its system A549. The data set is described as follows: Induction of DNA damage in human A549 cells assessed as increase in red fluorescence at 3 to 9 uM by acridine orange/EtBr staining based analysis. The class given is functional, cell-based. As to conditions: dose 3-9 µM.
The subject of data set [24] is A549. Kind of data set: Induction of apoptosis in human A549 cells assessed as early apoptotic cells at 6 uM by Annexin V-FITC/PI staining based flow cytometric analysis (reference value: 0.32 %). It is filed as functional.
Data set [25] is described as follows: Cytotoxicity against HEK293 cells assessed as inhibition of cell growth incubated for 48 hrs by MTT assay. It is filed as toxicity, cell-based. To be noted: human.
For another data set, the system named is HepG2. The data set is described as follows: Cytotoxicity against human HepG2 cells assessed as inhibition of cell growth incubated for 48 hrs by MTT assay. To be noted: HepG2, 48 h. The class given is functional, cell-based.
The test system of data set [26] is A549. Kind of data set: Induction of apoptosis in human A549 cells assessed as increase in necrotic cells by measuring red signals at 3 to 9 uM by acridine orange/EtBr staining based analysis. It is filed as functional, cell-based. To be noted: dose 3-9 µM.
Data set [27] deals with A549. Kind of data set: Cell cycle arrest in human A549 cells assessed as accumulation of cells at G2/M phase at 6 uM by PI staining based flow cytometric analysis (reference value: 11.5 %). The class given is functional.
Data set [28] relates to A549. Kind of data set: Induction of apoptosis in human A549 cells assessed as early apoptotic cells at 9 uM by Annexin V-FITC/PI staining based flow cytometric analysis (reference value: 0.32 %). It is filed as functional.
The test system of a further data set is SK-MEL-28. Kind of data set: Cytotoxicity against human SK-MEL-28 cells assessed as inhibition of cell growth incubated for 48 hrs by MTT assay. It is filed as functional, cell-based. To be noted: SK-MEL-28, 48 h.
The test system of data set [29] is A549. The data set is described as follows: Induction of ROS generation in human A549 cells assessed as fold change at 1.5 uM by DCFDA-H2 fluorescent dye based flow cytometric analysis relative to control. The class given is functional.
For data set [30], the system named is A549. The data set is described as follows: Cell cycle arrest in human A549 cells assessed as increase in G0/G1phase cell frequency at 1.5 uM by PI staining based flow cytometric analysis relative to control. The class given is functional.
Data set [31] has as its system A549. The data set is described as follows: Induction of apoptosis in human A549 cells assessed as increase in yellowish green intensity at 1.5 uM by acridine orange/EtBr staining based analysis. It is filed as functional, cell-based.
Data set [32] relates to A549. The data set is described as follows: Induction of apoptosis in human A549 cells assessed as necrotic cells at 1.5 uM by Annexin V-FITC/PI staining based flow cytometric analysis (reference value: 0.46 %). It is filed as functional.
The subject of data set [33] is A549. The data set is described as follows: Induction of apoptosis in human A549 cells assessed as inhibition of Bcl-2 expression at 1.5 uM by PI staining based flow cytometric analysis relative to control. The class given is functional.
For data set [34], the system named is A549. Kind of data set: Induction of apoptosis in human A549 cells assessed as reduction in green intensity at 1.5 uM by acridine orange/EtBr staining based analysis. It is filed as functional, cell-based.
The subject of data set [35] is A549. Kind of data set: Induction of apoptosis in human A549 cells assessed as increase in late apoptotic cells by measuring orange red signals at 1.5 uM by acridine orange/EtBr staining based analysis. It is filed as functional, cell-based.
For data set [36], the system named is A549. Kind of data set: Induction of apoptosis in human A549 cells assessed as late apoptotic cells at 1.5 uM by Annexin V-FITC/PI staining based flow cytometric analysis (reference value: 0.19 %). The class given is functional.
Data set [37] relates to A549. Kind of data set: Cytotoxicity against human A549 cells assessed as inhibition of cell growth. It is filed as functional, cell-based.
Data set [38] concerns A549. The data set is described as follows: Induction of apoptosis in human A549 cells assessed as increase in necrotic cells by measuring red signals at 1.5 uM by acridine orange/EtBr staining based analysis. The class given is functional, cell-based.
The subject of data set [39] is A549. Kind of data set: Induction of apoptosis in human A549 cells assessed as early apoptotic cells at 1.5 uM by Annexin V-FITC/PI staining based flow cytometric analysis (reference value: 0.32 %). The class given is functional.

By IC50 is commonly meant the point on the concentration scale where inhibition reaches its midpoint. `COc1ccc(C(=O)CN2C(=O)S/C(=C\c3coc4cc(Br)ccc4c3=O)C2=O)cc1`: the result in the data set with A549 [1], with A549 [4], in the data set on A549 [7], in the data set with A549 [10], with A549 [15] and in the data set with A549 [21] was Active. For the same molecule, the outcome with A549 [23] and in the data set on A549 [26] was Active. Also, the IC50 with A549 [2] is 6.1 µM; in the data set on HCT-116, over 10 µM; with MCF7, 8.9 µM; with HepG2 it was over 10 µM; with SK-MEL-28 it was over 10 µM. The Activity in the data set on A549 [3] was found to be 31.7%; in the data set with A549 [5] it was 18.08%; in the data set on A549 [6], 0.98%; in the data set on A549 [9], 0.29%; in the data set on A549 [12] it was 38.2%; with A549 [13] it was 21.6%. In addition, the Activity was found to be 2.2% in the data set with A549 [14]; 79.1% in the data set on A549 [16]; 0.27% with A549 [18]; 1.94% with A549 [19]; 6.6% in the data set with A549 [20]; 0.3% with A549 [22]. In addition, the Activity in the data set with A549 [24] is 3.1%; in the data set with A549 [27], 18.4%; in the data set with A549 [28], 10.9%. In addition, the “fold change (FC)” value in the data set on A549 [8] stood at 8.9; in the data set on A549 [11], 1.4; in the data set with A549 [17], 1.07. Besides, the IC50 at 48 h in [25] is 14.1 µM.

Broadly, the inhibition is how much of the control response was suppressed. As to `CC1(C)CCC(CN2CCN(c3ccc(C(=O)NS(=O)(=O)c4ccc(NCC5CCOCC5)c([N+](=O)[O-])c4)c(Oc4cnc5[nH]ccc5c4)c3)CC2)=C(c2ccc(Cl)cc2)C1` [VENETOCLAX], the “fold change (FC)” value in the data set with A549 [29] stood at 9.53. The Activity came to 6.9% in the data set with A549 [30], 5.5% in the data set with A549 [32], 4.9% in the data set on A549 [36] and 1.5% in the data set with A549 [39]. Moreover, the outcome in the data set on A549 [31], with A549 [34], with A549 [35] and in the data set on A549 [38] was Active. Besides, in the data set with A549 [33], the inhibition at 1.5 µM worked out at 61.7%. The IC50 in the data set with A549 [37] stood at 1.5 µM.
